# *1 amine or outer side, *2 acyl side, *3 side chain or, on linkers, in order; H or OH if unused. Where a SMILES comes first, the peptide text is derived from it. [ ]: non-standard residue; d: D form. Trp(βS-Me,4-F) = C[C@@H](c1c[nH]c2cccc(F)c12)[C@H](N)C(=O)O; Bip(4'-COOH) = N[C@@H](Cc1ccc(-c2ccc(C(=O)O)cc2)cc1)C(=O)O; 1Nal(3S-Me) = C[C@@H](c1cccc2ccccc12)[C@H](N)C(=O)O; X11 = O=C([C@@H]1C[C@@H](NCc2ccccc2)CN1[*:1])[*:2]; Ala(indazol-1-yl) = N[C@@H](Cn1ncc2ccccc21)C(=O)O; Phe(4-COOH) = N[C@@H](Cc1ccc(C(=O)O)cc1)C(=O)O; X4 = CCN[C@@H]1C[C@@H](C(=O)[*:2])N([*:1])C1; Pro(4R-NH2) = N[C@H]1CN[C@H](C(=O)O)C1; AEF = NCCOc1ccc(C[C@H](N)C(=O)O)cc1; hTyr = N[C@@H](CCc1ccc(O)cc1)C(=O)O; dNMeA = CN[C@H](C)C(=O)O; Nva = CCC[C@H](N)C(=O)O; Dap = NC[C@H](N)C(=O)O; Aib = CC(C)(N)C(=O)O
# Target: T1, Recombinant human IL-1β (Homo sapiens, UniProt P01584)
# T1 construct: purchased BioLegend 579404
# Assay: IL-6 assay in MRC5 cells: inhibition of IL-1β induced IL-6 secretion (AlphaLISA)
# Format: cell-based
# Settings: inhibition of IL-1β induced IL-6 secretion in MRC5 cells; IL-1β pre-incubated 1 hour with compound; read-out: MRC5 IC50
# Experimental: Procedure for IL-6 Assay in MRC5 Cells
# The inhibition of IL-1β induced IL-6 secretion was evaluated in MRC5 cells. Recombinant human IL-1β (BioLegend 579404) at 2×EC80 concentration was prepared in seeding medium, EMEM (ATCC 30-2003) with 0.025% BSA (Sigma A9576), 1× penicillin/streptomycin (Gibco 15070-063), 1×NEAA (Gibco 11140-050), 1× GlutaMax (Gibco 35050-061), and 1× sodium pyruvate (Gibco 11360-070). 20 μL of IL-1β was added to a 384-well collagen-coated plate (Corning 354664) and pre-incubated at ambient temperature for 1 hour with 200 nL of compound dispensed using an ECHO 555 liquid handler. Human lung fibroblast MRC5 cells (ATCC CCL-171) were added at a density of 3000 cells/20 μL per well. The cells were prepared by passaging three times in growth medium, EMEM (ATCC 30-2003) with 10% fetal bovine serum (Gibco 16140-071), 1× penicillin/streptomycin (Gibco 15070-063), 1×NEAA (Gibco 11140-050), 1× GlutaMax (Gibco 35050-061), and 1× sodium pyruvate (Gibco 11360-070) in collagen-coated T175 flasks (Greiner 661950) and harvested in seeding medium after 5 minutes of 0.25% trypsin-EDTA (Gibco 25200-056) digestion. The 384-well collagen-coated plate, containing a final volume of 40 μL, was incubated at 37° C., 5% CO2 overnight. 5 μL of the conditioned medium was transferred to a 384-well AlphaLISA plate (PerkinElmer 6005350) for detection of IL-6 using the human AlphaLISA IL-6 kit (PerkinElmer AL223F) as per the manufacturer's protocol. 20 μL of the acceptor bead/biotinylated antibody mix was added to the 384-well AlphaLISA plate and incubated for 1 hour at ambient temperature. The donor bead mix was protected from light and 25 μL was added to the plate and incubated for 30 minutes at ambient temperature. The AlphaLISA plate was read on an EnVision multimode plate reader (Perkin Elmer model 2104) using the AlphaScreen setting (laser exc at 680 nm and emis at 570 nm). Dose response curves and IC50 values were analyzed using a 4-parameter logistic equation in Spotfire software (Tibco, Palo Alto, CA).
# T1 sequence (P01584 117-269): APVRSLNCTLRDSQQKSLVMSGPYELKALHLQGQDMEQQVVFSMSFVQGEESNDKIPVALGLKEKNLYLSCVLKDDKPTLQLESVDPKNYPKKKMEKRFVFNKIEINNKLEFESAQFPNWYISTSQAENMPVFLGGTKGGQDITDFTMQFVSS
row,SMILES,IC50 [nM]
1,CC(=O)NCCOc1ccc(C[C@@H]2NC(=O)[C@H](CCc3ccc(O)cc3)NC(=O)C(C)(C)NC(=O)CNC(=O)[C@H](CCCCN)NC(=O)[C@H](Cc3ccc(-c4ccc(C(=O)O)cc4)cc3)NC(=O)CNC(=O)[C@@H](C)N(C)C(=O)[C@H](CC(=O)O)NC(=O)[C@H]([C@@H](C)c3cccc4ccccc34)NC(=O)[C@@H]3C[C@@H](N)CN3C(=O)CNC(=O)[C@H](Cc3ccc(C(=O)O)cc3)NC(=O)[C@H](Cc3c[nH]c4ccccc34)NC2=O)cc1 [Example 107] (cyclo([AEF](Ac)W[Phe(4-COOH)]G[Pro(4R-NH2)][1Nal(3S-Me)]D[dNMeA]G[Bip(4'-COOH)]KG[Aib][hTyr])),0.0582
2,"CC(C)C[C@@H]1NC(=O)[C@H](CCCCN)NC(=O)[C@H](Cc2ccc(-c3ccc(C(=O)O)cc3)cc2)NC(=O)CNC(=O)[C@@H](C)N(C)C(=O)[C@H](CC(=O)O)NC(=O)[C@H]([C@@H](C)c2c[nH]c3cccc(F)c23)NC(=O)[C@@H]2C[C@@H](N)CN2C(=O)CNC(=O)[C@H](Cc2ccc(C(=O)O)cc2)NC(=O)[C@H](Cc2c[nH]c3ccccc23)NC(=O)[C@H](Cc2ccc(-c3ccc(C(=O)O)cc3)cc2)NC(=O)[C@H](CCc2ccc(O)cc2)NC(=O)[C@@H](C)NC1=O [Example 67] (cyclo([Bip(4'-COOH)]W[Phe(4-COOH)]G[Pro(4R-NH2)][Trp(βS-Me,4-F)]D[dNMeA]G[Bip(4'-COOH)]KL[dA][hTyr]))",0.046
3,"CCC[C@@H]1NC(=O)[C@H](CCCCN)NC(=O)[C@H](Cc2ccc(-c3ccc(C(=O)O)cc3)cc2)NC(=O)CNC(=O)[C@@H](C)N(C)C(=O)[C@H](CC(=O)O)NC(=O)[C@H]([C@@H](C)c2c[nH]c3cccc(F)c23)NC(=O)[C@@H]2C[C@@H](N)CN2C(=O)CNC(=O)[C@H](Cc2ccc(C(=O)O)cc2)NC(=O)[C@H](Cc2c[nH]c3ccccc23)NC(=O)[C@H](Cc2ccc(-c3ccc(C(=O)O)cc3)cc2)NC(=O)[C@H](CCc2ccc(O)cc2)NC(=O)[C@@H](C)NC1=O [Example 71] (cyclo([Bip(4'-COOH)]W[Phe(4-COOH)]G[Pro(4R-NH2)][Trp(βS-Me,4-F)]D[dNMeA]G[Bip(4'-COOH)]K[Nva][dA][hTyr]))",0.0926

# Stronger by IC50, values ahead:
row,IC50 [nM],SMILES
1,0.031,C[C@@H]1C(=O)NCC(=O)N[C@@H](Cc2ccc(-c3ccc(C(=O)O)cc3)cc2)C(=O)N[C@@H](Cn2ncc3ccccc32)C(=O)N[C@@H](CN)C(=O)N[C@H](C)C(=O)N[C@@H](CCc2ccc(O)cc2)C(=O)N[C@@H](Cc2ccc(-c3ccc(C(=O)O)cc3)cc2)C(=O)N[C@@H](Cc2c[nH]c3ccccc23)C(=O)N[C@@H](Cc2ccc(C(=O)O)cc2)C(=O)NCC(=O)N2C[C@H](N)C[C@H]2C(=O)N[C@@H]([C@@H](C)c2cccc3ccccc23)C(=O)N[C@@H](CC(=O)O)C(=O)N1C [Example 13] (cyclo([Bip(4'-COOH)]W[Phe(4-COOH)]G[Pro(4R-NH2)][1Nal(3S-Me)]D[dNMeA]G[Bip(4'-COOH)][Ala(indazol-1-yl)][Dap][dA][hTyr]))
2,0.0157,C[C@@H]1C(=O)NCC(=O)N[C@@H](Cc2ccc(-c3ccc(C(=O)O)cc3)cc2)C(=O)N[C@@H](Cc2c[nH]c3ccccc23)C(=O)N[C@@H](CN)C(=O)N[C@H](C)C(=O)N[C@@H](CCc2ccc(O)cc2)C(=O)N[C@@H](Cc2ccc(-c3ccc(C(=O)O)cc3)cc2)C(=O)N[C@@H](Cc2c[nH]c3ccccc23)C(=O)N[C@@H](Cc2ccc(C(=O)O)cc2)C(=O)NCC(=O)N2C[C@H](NCc3ccccc3)C[C@H]2C(=O)N[C@@H]([C@@H](C)c2cccc3ccccc23)C(=O)N[C@@H](CC(=O)O)C(=O)N1C [Example 82] (cyclo([Bip(4'-COOH)]W[Phe(4-COOH)]G[X11][1Nal(3S-Me)]D[dNMeA]G[Bip(4'-COOH)]W[Dap][dA][hTyr]))
3,0.0258,CCN[C@@H]1C[C@H]2C(=O)N[C@@H]([C@@H](C)c3cccc4ccccc34)C(=O)N[C@@H](CC(=O)O)C(=O)N(C)[C@H](C)C(=O)NCC(=O)N[C@@H](Cc3ccc(-c4ccc(C(=O)O)cc4)cc3)C(=O)N[C@@H](Cc3c[nH]c4ccccc34)C(=O)N[C@@H](CN)C(=O)N[C@H](C)C(=O)N[C@@H](CCc3ccc(O)cc3)C(=O)N[C@@H](Cc3ccc(-c4ccc(C(=O)O)cc4)cc3)C(=O)N[C@@H](Cc3c[nH]c4ccccc34)C(=O)N[C@@H](Cc3ccc(C(=O)O)cc3)C(=O)NCC(=O)N2C1 [Example 84] (cyclo([Bip(4'-COOH)]W[Phe(4-COOH)]G[X4][1Nal(3S-Me)]D[dNMeA]G[Bip(4'-COOH)]W[Dap][dA][hTyr]))

# Reference: patent publication US20230406885A1, “CYCLIC PEPTIDES FOR TRAPPING INTERLEUKIN-1 BETA” (MERCK SHARP & DOHME LLC, priority 2022, published 2023)
